Article PMC3372491, “Application of Consensus Scoring and Principal Component Analysis for Virtual Screening against β-Secretase (BACE-1)” (PLoS ONE, 2012)

Biological target: T1, β-secretase (BACE-1) (Homo sapiens, UniProt P56817)
T1 construct: gene BACE1
Assay: BACE-1 FRET enzymatic assay
Format: biochemical

T1 sequence (P56817 46-457): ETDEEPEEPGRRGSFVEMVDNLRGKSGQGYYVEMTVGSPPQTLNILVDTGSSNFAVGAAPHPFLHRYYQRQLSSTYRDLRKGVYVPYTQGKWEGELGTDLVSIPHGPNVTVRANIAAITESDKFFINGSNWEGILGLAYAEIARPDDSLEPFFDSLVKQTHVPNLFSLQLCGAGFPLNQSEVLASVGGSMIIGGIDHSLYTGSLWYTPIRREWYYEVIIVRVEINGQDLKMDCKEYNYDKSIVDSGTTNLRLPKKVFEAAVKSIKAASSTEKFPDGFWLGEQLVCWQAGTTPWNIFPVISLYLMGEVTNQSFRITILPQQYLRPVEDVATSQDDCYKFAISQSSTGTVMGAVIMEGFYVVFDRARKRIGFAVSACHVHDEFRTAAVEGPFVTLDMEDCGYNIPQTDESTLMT

| IC50 [µM] | SMILES |
| --- | --- |
| 85.3 | O=C(NCc1ccccc1)[C@@H](O)[C@H](O)C(=O)NCc1ccccc1 [compound 2, 276065] |
| 51.6 | N[C@@H](CCCCNC(=O)OCc1ccccc1)C(=O)OCc1ccccc1 [compound 1, S450588] |
